# Patent publication US8399378B2, “Use of neonicotinoids in pest control” (Syngenta Crop Protection LLC, priority 1998, dated 2013)
# Assays:
# Assay type in all cases: in vivo
# Anthonomus grandis [1] = assay: Spray test on young cotton plants, action against Anthonomus grandis adults; settings: spray 100, 50, 10, 5, 1 ppm, evaluation 3 to 10 days
# Excerpt: (§1) Young transgenic cotton plants which express the δ-endotoxin CryIIIA are sprayed with an aqueous emulsion spray mixture comprising 100, 50, 10, 5, 1 ppm of imidacloprid respectively. After the spray coating has dried on, the cotton plants are populated with 10 adult Anthonomus grandis, 10 Spodoptera littoralis larvae or 10 Heliothis virescens larvae respectively and introduced into a plastic container. Evaluation takes place 3 to 10 days later.
# as §1, with “thiamethoxam” for “imidacloprid”
# as §1, with “Ti-435” for “imidacloprid”
# as §1, with “CryIa(c)” for “CryIIIA”, “Ti-435” for “imidacloprid”
# as §1, with “CryIa(c)” for “CryIIIA”, “thiamethoxam” for “imidacloprid”
# as §1, with “CryIa(c)” for “CryIIIA”
# Heliothis spp. = assay: Maize plot spray test (KnockOut vs conventional maize), action against Heliothis spp.; settings: 6 days; for control (percentage reduction in population, % action): plot (a) maize cv. KnockOut, spray 200, 100, 50, 10, 5, 1 ppm, natural infestation; for control level: plot (b) conventional maize, compound 200, 100, 50, 10, 5, 1 ppm, then same ppm of the endotoxin expressed by KnockOut
# Description: (§2) A plot (a) planted with maize cv. KnockOut® and an adjacent plot (b) of the same size which is planted with conventional maize, both showing natural infestation with Ostrinia nubilalis, Spodoptera spp. or Heliothis, are sprayed with an aqueous emulsion spray mixture comprising 200, 100, 50, 10, 5, 1 ppm of Ti-435. Immediately afterwards, plot (b) is treated with an emulsion spray mixture comprising 200, 100, 50, 10, 5, 1 ppm of the endotoxin expressed by KnockOut®. Evaluation takes place 6 days later. The percentage reduction in population (% action) is determined by comparing the number of dead pests on the plants of plot (a) with that on the plants of plot (b).
# as §2, with “thiamethoxam.” for “Ti-435.”
# as §2, with “imidacloprid.” for “Ti-435.”
# Spodoptera littoralis [2] = assay: Spray test on young cotton plants, action against Spodoptera littoralis larvae
# Anthonomus grandis [3] = assay: Spray test on young cotton plants, action against Anthonomus grandis adults; settings: non-transgenic cotton treated with compound and conventional CryIIIA-toxin, each 100, 50, 10, 5, 1 ppm
# Heliothis virescens [4] = assay: Spray test on young cotton plants, action against Heliothis virescens larvae; settings: spray 100, 50, 10, 5, 1 ppm, evaluation 3 to 10 days
# Excerpt: as §1
# as §1, with “thiamethoxam” for “imidacloprid”
# as §1, with “Ti-435” for “imidacloprid”, “later. […]” for “later.”
# Heliothis virescens [5] = assay: as above; settings: non-transgenic cotton treated with compound and conventional CryIIIA-toxin, each 100, 50, 10, 5, 1 ppm
# Spodoptera spp. = assay: Maize plot spray test (KnockOut vs conventional maize), action against Spodoptera spp.; settings: 6 days; for control (percentage reduction in population, % action): plot (a) maize cv. KnockOut, spray 200, 100, 50, 10, 5, 1 ppm, natural infestation; for control level: plot (b) conventional maize, compound 200, 100, 50, 10, 5, 1 ppm, then same ppm of the endotoxin expressed by KnockOut
# Description: as §2
# as §2, with “thiamethoxam.” for “Ti-435.”
# as §2, with “imidacloprid.” for “Ti-435.”
# Spodoptera littoralis [6] = assay: Spray test on young cotton plants, action against Spodoptera littoralis larvae; remark: listed apart in the source
# Excerpt: as §1
# as §1, with “thiamethoxam” for “imidacloprid”
# as §1, with “Ti-435” for “imidacloprid”
# as §1, with “CryIa(c)” for “CryIIIA”, “Ti-435” for “imidacloprid”
# as §1, with “CryIa(c)” for “CryIIIA”, “thiamethoxam” for “imidacloprid”
# as §1, with “CryIa(c)” for “CryIIIA”
# Ostrinia nubilalis = assay: Maize plot spray test (KnockOut vs conventional maize), action against Ostrinia nubilalis; settings: 6 days; for control (percentage reduction in population, % action): plot (a) maize cv. KnockOut, spray 200, 100, 50, 10, 5, 1 ppm, natural infestation; for control level: plot (b) conventional maize, compound 200, 100, 50, 10, 5, 1 ppm, then same ppm of the endotoxin expressed by KnockOut
# Description: as §2
# as §2, with “thiamethoxam.” for “Ti-435.”
# as §2, with “imidacloprid.” for “Ti-435.”
# [7] = transgenic cotton expressing δ-endotoxin CryIIIA, compared with non-transgenic plant
# [8] = transgenic cotton expressing δ-endotoxin CryIa(c)
# [9] = transgenic cotton expressing δ-endotoxin CryIIIA, spray 100, 50, 10, 5, 1 ppm, evaluation 3 to 10 days, compared with non-transgenic plant
# [10] = comparison arm for CryIa(c) cotton
# [11] = non-transgenic cotton treated with compound and conventional CryIIIA-toxin, each 100, 50, 10, 5, 1 ppm, comparison arm for CryIa(c) cotton
# [12] = transgenic cotton expressing δ-endotoxin CryIa(c), spray 100, 50, 10, 5, 1 ppm, evaluation 3 to 10 days
# [13] = comparison arm for CryIIIA cotton
Compound,"control of the tested insects (percentage reduction in population or feeding damage, % action) (Anthonomus grandis [1]; [7])","control of the tested insects (percentage reduction in population or feeding damage, % action) (Anthonomus grandis [1]; [8])","control (percentage reduction in population, % action) (Heliothis spp.)",control level (Heliothis spp.) [%],"control of the tested insects (percentage reduction in population or feeding damage, % action) (Spodoptera littoralis [2]; [9])","control of the tested insects (percentage reduction in population or feeding damage, % action) (Anthonomus grandis [3]; [10])","control of the tested insects (percentage reduction in population or feeding damage, % action) (Heliothis virescens [4]; [7])","control of the tested insects (percentage reduction in population or feeding damage, % action) (Heliothis virescens [4]; [8])","control of the tested insects (percentage reduction in population or feeding damage, % action) (Heliothis virescens [5]; [10])","control (percentage reduction in population, % action) (Spodoptera spp.)",control level (Spodoptera spp.) [%],"control of the tested insects (percentage reduction in population or feeding damage, % action) (Spodoptera littoralis [6]; [11])","control of the tested insects (percentage reduction in population or feeding damage, % action) (Spodoptera littoralis [6]; [12])","control (percentage reduction in population, % action) (Ostrinia nubilalis)",control level (Ostrinia nubilalis) [%],"control of the tested insects (percentage reduction in population or feeding damage, % action) (Spodoptera littoralis [2]; non-transgenic cotton treated with compound and conventional CryIIIA-toxin, each 100, 50, 10, 5, 1 ppm, comparison arm for CryIIIA cotton)","control of the tested insects (percentage reduction in population or feeding damage, % action) (Anthonomus grandis [3]; [13])","control of the tested insects (percentage reduction in population or feeding damage, % action) (Heliothis virescens [5]; [13])"
O=[N+]([O-])/N=C1\NCCN1Cc1ccc(Cl)nc1 [imidacloprid],superior,superior,Improved control,≤ 60,superior,insufficient,superior,superior,insufficient,Improved control,≤ 60,insufficient,superior,Improved control,≤ 60,–,–,–
CN/C(=N\[N+](=O)[O-])NCc1cnc(Cl)s1 [Ti-435],superior,superior,Improved control,≤ 60,superior,insufficient,superior,superior,insufficient,Improved control,≤ 60,insufficient,superior,Improved control,≤ 60,insufficient,insufficient,insufficient
